# According to US20080318892A1, “METHODS AND FORMULATIONS FOR PROTECTING CELLS, AND FOR TREATING DISEASES AND CONDITIONS BY OPTIMIZING THE INTRACELLULAR CONCENTRATION OF NAD” (priority 2007, published 2008):
# Assays:
# Nampt = target: T1, Nampt (Homo sapiens, UniProt P43490); experiment: Nicotinamide phosphoribosyltransferase (Nampt/PBEF) activity in SMC lysates, [14C]nicotinamide to NMN; type: cell-based
# T1 construct: endogenous in cells; host or cells: human vascular SMCs (primary and HITC6), whole cell lysates
# T1 sequence (P43490 whole entry): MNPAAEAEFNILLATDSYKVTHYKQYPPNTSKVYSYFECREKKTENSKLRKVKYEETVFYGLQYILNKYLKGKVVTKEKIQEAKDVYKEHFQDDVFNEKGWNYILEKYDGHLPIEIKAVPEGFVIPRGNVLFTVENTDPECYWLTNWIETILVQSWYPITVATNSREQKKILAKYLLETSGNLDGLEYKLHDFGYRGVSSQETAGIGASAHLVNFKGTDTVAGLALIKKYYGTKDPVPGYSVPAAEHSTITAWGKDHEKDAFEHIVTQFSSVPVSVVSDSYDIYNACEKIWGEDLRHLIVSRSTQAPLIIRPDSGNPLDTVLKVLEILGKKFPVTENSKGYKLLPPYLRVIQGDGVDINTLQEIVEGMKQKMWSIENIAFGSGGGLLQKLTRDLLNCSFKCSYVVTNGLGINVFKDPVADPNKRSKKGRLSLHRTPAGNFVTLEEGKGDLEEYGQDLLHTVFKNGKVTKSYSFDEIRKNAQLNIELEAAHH
# Method: Nicotinamide Phosphoribosyltransferase Activity. […] Labelled acetone-precipitable nicotinamide mononucleotide was quantified by scintillation counting.
# Assessment of Nicotinamide Phosphoribosyltransferase Activity. […] Briefly, SMCs were lysed in buffer containing 10 mM NaH2PO4/Na2HPO4, at pH 8.8. Cell lysates were incubated with 0.5 μM [carbonyl-^14C]nicotinamide and 0.5 mM phosphoribosylpyrophosphate for 4 h on a rotating rocker at 37° C.
# HITC6 SMCs = experiment: Senescence-associated beta-galactosidase activity / senescence-free survival; type: cell-based, human; conditions: successive subcultures incubated with 10 nM FK866; p<0.0001
# Method: Senescence-associated β-Galatosidase Activity Assay. SMCs on glass coverslips at approximately 70% confluence were fixed in 2% formaldehyde/0.2% glutaraldehyde in PBS for 3 minutes and incubated with X-gal-containing reaction mixture, as previously described (Dimri, 1995). Washed cells were stained with Hoechst 33258 (2.5 μg/ml) and the proportion of senescence-associated β-galactosidase (SA β-Gal)-positive cells quantified from 10 microscope fields of view (Olympus BX51, ×20 objective, approximately 1200 cells). Senescence-free survival was determined using Kaplan-Meier analysis of survival vs. replicative age.
# Senescence-associated Beta-galactosidase Activity. Senescence-associated beta-galactosidase (SA-β-gal) activity was determined as previously described (Dimri et al, 1995). Briefly, SMCs were fixed in PBS containing 2% formaldehyde/0.2% glutaraldehyde for 3 min at room temperature. Fixed cells were then incubated for 4-6 h at 37° C. with SA-β-gal stain solution containing 150 mM NaCl, 2 mM MgCl, 40 mM citrate, 5 mM potassium ferrocyanide, 5 mM potassium ferricyanide, and 1 mg/ml of 5-bromo-4-chloro-3-indolyl-β-D-galactopyranoside (X-gal) (Invitrogen, Carlsbad, Calif., USA), at pH 6.0. SMCs were counterstained with 2.5 μg/ml Hoechst 33258 to detect cell nuclei. The proportion of SA-β-gal activity positive cells was quantified using light and fluorescence microscopy (Olympus BX51, Center Valley, Pa., USA).
# SIRT1 = SIRT1 deacetylase activity in live SMCs (Fluor de Lys-SIRT1 substrate, TSA-independent); type: cell-based, human; conditions: HITC6 SMCs incubated with 10 nM FK866, 48 h
# Method: In vivo assessment of SIRT1 deacetylase activity. Cell-based assessment of SIRT1-like enzymatic activity was performed using the Fluor de lys-SIRT1 substrate (Biomol, Plymouth Meeting, Pa.), as previously described (de Boer, 2006). SMCs in phenol-red free M199 with 5% FBS were incubated for 2 h with 5 μM TSA followed by addition of the fluorogenic substrate for 4 h. Signal was quantified by spectrofluorimetry (Wallac, Wellesley, Mass.) and normalized to total protein content.
# Assessment of SIRT1 Deacetylase Activity. SIRT1 deacetylase activity was quantified in live cells as previously reported (de Boer et al, 2006). SMCs cultured in phenol red-free M199 were incubated without serum for 2 h with 1 μM trichostatin A (Sigma, St. Louis, Mo., USA) followed by addition of 25 μM Fluor-de-Lys-SIRT1 fluorogenic substrate (Biomol, Plymouth Meeting, Pa., USA) for 4 h. Media containing fluorogenic substrate and reaction product was incubated with an equal volume of SIRT1 assay buffer containing 2 mM nicotinamide and developer (Biomol, Plymouth Meeting, Pa., USA). Signal was quantified by spectrofluorometry (Wallac VICTOR-1420, PerkinElmer Life Science, Waltham, Mass., USA) and normalized to total protein content
compound,measurement,setting,value
"O=C(/C=C/c1cccnc1)NCCCCC1CCN(C(=O)c2ccccc2)CC1 [FK866, reference compound]","PBEF activity in SMCs, % of baseline",Nampt; 10 nM FK866,22±2%
same,Nampt activity relative to basal level,"Nampt; SMCs incubated with 10 nM FK866, p<0.001",0.11±0.05
same,senescence-free survival (Kaplan-Meier),HITC6 SMCs,substantially shortened
same,SIRT1 activity,SIRT1,substantial loss
